Columns and labels:
Androgen receptor = molecular target: T1, Androgen receptor (Rattus norvegicus, UniProt P15207); format: functional
T1 sequence (P15207 whole entry): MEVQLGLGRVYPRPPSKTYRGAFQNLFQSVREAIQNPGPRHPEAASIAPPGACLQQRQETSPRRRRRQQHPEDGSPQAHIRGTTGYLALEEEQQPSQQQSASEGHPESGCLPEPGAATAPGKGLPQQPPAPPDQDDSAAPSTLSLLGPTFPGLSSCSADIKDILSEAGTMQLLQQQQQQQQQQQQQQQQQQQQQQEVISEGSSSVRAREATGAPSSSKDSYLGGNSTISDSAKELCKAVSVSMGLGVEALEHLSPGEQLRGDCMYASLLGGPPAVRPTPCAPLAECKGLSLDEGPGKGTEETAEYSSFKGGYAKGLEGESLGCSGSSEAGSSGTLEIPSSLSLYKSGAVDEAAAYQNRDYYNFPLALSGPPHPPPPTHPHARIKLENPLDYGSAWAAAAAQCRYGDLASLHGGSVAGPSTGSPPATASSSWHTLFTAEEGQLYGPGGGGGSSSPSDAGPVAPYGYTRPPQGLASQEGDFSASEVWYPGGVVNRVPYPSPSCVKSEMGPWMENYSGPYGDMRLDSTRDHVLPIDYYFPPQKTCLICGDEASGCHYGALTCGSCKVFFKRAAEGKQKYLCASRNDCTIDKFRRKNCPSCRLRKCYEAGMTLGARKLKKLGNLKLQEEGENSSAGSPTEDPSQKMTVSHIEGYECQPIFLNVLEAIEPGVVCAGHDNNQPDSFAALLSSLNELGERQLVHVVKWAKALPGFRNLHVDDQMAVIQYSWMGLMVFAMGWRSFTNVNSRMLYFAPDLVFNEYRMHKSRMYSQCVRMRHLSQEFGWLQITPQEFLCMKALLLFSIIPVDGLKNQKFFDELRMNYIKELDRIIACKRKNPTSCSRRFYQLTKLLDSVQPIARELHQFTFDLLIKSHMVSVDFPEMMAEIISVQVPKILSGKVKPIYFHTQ

[1] = molecular target: Voltage-dependent L-type calcium channel subunit alpha-1C (Homo sapiens, UniProt Q13936); format: functional, cell-based
Chain of Voltage-dependent L-type calcium channel subunit alpha-1C (Q13936 whole entry): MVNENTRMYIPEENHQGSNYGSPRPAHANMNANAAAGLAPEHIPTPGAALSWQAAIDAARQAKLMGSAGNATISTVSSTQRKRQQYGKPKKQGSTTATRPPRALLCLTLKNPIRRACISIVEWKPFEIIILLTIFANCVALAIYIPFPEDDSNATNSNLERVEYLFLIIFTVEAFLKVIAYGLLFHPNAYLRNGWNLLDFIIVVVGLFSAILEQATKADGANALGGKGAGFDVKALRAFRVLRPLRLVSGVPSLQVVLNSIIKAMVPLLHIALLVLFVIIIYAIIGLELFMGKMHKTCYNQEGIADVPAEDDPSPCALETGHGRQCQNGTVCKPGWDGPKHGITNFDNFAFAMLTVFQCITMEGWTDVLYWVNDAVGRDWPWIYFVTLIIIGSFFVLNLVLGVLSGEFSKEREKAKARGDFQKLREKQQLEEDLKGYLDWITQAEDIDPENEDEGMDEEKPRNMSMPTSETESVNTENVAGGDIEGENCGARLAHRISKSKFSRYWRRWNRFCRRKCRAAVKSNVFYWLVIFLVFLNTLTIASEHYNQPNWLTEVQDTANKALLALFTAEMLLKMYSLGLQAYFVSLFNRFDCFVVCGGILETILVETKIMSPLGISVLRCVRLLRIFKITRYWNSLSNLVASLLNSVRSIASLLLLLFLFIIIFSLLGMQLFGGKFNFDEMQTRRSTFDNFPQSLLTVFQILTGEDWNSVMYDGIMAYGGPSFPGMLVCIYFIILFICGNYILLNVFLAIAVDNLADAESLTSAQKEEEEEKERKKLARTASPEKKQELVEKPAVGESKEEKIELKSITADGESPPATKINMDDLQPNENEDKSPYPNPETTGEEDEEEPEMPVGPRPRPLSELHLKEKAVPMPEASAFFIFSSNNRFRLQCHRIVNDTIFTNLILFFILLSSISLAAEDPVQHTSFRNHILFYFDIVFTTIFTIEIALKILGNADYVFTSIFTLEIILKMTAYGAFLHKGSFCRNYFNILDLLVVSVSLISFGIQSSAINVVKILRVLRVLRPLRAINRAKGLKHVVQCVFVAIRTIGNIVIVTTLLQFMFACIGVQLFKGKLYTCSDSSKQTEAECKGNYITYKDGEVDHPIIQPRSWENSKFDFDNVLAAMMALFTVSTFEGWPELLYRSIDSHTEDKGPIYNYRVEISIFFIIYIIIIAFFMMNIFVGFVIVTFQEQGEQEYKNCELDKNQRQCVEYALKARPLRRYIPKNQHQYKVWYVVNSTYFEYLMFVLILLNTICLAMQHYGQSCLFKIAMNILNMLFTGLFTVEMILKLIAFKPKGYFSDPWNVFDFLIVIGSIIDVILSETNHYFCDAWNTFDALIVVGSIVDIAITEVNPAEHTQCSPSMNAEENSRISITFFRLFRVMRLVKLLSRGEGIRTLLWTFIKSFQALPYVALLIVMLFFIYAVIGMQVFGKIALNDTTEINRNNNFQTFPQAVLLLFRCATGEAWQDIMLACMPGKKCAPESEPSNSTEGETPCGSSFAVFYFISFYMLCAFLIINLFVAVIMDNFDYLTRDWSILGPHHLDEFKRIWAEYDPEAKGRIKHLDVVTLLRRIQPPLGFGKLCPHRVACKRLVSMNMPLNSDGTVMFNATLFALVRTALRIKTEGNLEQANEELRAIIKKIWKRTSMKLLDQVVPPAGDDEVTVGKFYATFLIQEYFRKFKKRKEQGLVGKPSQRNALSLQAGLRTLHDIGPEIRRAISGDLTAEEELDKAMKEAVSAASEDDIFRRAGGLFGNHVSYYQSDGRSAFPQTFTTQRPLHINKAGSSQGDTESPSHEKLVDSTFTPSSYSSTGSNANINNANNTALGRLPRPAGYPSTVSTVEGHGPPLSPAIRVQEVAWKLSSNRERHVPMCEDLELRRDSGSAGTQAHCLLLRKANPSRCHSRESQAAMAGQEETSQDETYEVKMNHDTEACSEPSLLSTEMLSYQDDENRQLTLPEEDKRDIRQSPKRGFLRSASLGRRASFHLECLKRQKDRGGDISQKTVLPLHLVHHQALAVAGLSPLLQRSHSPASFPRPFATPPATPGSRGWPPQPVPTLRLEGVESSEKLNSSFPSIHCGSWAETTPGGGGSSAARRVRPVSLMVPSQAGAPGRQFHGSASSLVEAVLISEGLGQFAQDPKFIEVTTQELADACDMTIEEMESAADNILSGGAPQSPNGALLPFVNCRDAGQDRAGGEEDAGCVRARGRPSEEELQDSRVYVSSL

Estrogen receptor = molecular target: T2, Estrogen receptor (Homo sapiens, UniProt P03372); format: functional
T2 sequence (P03372 whole entry): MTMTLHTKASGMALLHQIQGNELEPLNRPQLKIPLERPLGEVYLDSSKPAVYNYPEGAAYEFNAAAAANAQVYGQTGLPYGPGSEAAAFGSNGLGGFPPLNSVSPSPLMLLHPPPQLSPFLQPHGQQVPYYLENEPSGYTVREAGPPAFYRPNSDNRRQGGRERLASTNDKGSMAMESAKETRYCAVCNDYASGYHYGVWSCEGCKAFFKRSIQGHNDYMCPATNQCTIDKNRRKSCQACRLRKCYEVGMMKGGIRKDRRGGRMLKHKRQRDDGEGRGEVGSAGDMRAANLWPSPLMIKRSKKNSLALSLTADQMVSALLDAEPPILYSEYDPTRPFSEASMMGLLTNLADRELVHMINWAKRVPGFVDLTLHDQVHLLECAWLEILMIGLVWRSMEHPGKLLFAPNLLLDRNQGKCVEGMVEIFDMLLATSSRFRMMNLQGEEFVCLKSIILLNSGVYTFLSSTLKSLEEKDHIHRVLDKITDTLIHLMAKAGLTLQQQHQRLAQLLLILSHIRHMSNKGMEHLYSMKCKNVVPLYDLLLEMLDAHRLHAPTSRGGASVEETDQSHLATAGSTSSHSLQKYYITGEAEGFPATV

Histamine H2 receptor = Histamine H2 receptor (Homo sapiens, UniProt P25021)
Chain of Histamine H2 receptor (P25021 whole entry): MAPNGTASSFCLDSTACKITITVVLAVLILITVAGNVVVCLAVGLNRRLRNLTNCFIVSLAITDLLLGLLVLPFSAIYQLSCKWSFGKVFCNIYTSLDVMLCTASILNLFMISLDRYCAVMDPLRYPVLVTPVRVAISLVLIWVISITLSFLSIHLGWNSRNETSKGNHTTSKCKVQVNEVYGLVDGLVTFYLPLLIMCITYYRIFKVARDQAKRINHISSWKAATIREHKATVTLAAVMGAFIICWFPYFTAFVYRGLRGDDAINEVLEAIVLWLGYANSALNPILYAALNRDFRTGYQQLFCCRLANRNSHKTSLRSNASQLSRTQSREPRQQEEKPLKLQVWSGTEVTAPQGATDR

[2] = molecular target: 5-hydroxytryptamine receptor 7 (Homo sapiens, UniProt P34969)
Chain of 5-hydroxytryptamine receptor 7 (P34969 whole entry): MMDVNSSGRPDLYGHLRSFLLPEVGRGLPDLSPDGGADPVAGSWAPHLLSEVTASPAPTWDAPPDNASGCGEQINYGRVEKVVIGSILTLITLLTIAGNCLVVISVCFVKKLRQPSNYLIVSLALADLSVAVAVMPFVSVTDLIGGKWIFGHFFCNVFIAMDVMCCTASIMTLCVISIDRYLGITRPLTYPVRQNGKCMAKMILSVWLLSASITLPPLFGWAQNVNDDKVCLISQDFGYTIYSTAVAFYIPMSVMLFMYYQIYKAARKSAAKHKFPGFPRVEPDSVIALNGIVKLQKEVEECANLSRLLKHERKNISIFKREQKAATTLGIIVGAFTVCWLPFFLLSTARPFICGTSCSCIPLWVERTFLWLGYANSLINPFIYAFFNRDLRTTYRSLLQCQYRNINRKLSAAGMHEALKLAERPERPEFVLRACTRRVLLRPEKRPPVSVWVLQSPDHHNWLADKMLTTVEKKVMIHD

[3] = molecular target: Neurotensin receptor type 1 (Homo sapiens, UniProt P30989)
Chain of Neurotensin receptor type 1 (P30989 whole entry): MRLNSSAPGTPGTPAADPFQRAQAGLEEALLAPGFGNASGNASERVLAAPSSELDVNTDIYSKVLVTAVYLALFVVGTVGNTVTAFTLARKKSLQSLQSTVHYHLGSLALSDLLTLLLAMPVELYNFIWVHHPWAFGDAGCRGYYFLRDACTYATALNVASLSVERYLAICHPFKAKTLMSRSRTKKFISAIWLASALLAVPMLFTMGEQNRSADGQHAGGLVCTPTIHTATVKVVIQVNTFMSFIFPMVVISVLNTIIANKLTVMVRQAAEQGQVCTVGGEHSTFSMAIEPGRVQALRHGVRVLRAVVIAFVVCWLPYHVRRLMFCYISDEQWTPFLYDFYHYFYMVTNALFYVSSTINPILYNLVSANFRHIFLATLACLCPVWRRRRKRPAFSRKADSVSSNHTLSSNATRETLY

Substance-P receptor = Substance-P receptor (Homo sapiens, UniProt P25103)
Chain of Substance-P receptor (P25103 whole entry): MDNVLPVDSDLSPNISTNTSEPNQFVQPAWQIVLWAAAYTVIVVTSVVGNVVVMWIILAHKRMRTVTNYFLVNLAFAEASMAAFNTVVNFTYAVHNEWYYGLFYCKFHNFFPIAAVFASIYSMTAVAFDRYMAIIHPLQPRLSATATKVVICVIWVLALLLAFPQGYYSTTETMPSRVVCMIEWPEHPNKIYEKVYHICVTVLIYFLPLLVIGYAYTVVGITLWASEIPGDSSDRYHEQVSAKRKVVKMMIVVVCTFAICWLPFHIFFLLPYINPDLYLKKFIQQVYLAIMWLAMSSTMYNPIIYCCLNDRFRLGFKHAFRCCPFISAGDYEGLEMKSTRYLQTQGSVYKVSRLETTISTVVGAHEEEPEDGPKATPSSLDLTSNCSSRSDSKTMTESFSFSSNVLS

[4] = molecular target: T3, Alpha-1A adrenergic receptor (Homo sapiens, UniProt P35348)
T3 sequence (P35348 whole entry): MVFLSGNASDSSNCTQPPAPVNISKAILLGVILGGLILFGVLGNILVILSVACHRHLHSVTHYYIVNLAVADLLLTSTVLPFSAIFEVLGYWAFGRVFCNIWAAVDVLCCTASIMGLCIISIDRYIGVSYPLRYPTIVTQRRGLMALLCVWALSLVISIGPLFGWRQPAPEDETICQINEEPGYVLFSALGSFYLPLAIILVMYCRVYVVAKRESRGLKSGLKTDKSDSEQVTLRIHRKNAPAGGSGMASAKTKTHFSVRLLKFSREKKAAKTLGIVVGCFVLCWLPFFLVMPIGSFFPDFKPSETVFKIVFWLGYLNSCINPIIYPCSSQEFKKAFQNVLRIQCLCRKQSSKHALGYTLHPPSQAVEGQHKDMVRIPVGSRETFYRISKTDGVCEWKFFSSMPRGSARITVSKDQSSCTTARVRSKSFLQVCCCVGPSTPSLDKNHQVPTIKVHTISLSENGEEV

Estrogen receptor beta = Estrogen receptor beta (Homo sapiens, UniProt Q92731)
Chain of Estrogen receptor beta (Q92731 whole entry): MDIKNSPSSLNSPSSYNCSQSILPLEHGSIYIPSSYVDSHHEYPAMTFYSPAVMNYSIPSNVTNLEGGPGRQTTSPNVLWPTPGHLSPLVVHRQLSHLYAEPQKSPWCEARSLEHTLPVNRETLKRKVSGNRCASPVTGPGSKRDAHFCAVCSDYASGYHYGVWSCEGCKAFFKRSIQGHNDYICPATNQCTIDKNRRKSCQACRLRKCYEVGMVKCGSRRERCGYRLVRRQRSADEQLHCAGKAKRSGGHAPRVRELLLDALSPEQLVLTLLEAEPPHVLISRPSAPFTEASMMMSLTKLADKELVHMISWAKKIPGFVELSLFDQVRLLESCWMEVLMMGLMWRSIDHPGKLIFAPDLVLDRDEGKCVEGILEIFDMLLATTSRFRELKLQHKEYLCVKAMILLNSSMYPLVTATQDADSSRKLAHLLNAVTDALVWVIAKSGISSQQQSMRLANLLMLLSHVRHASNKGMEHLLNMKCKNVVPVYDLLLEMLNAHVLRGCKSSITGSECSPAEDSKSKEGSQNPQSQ

Histamine H1 receptor = Histamine H1 receptor (Homo sapiens, UniProt P35367); format: functional, cell-based
Chain of Histamine H1 receptor (P35367 whole entry): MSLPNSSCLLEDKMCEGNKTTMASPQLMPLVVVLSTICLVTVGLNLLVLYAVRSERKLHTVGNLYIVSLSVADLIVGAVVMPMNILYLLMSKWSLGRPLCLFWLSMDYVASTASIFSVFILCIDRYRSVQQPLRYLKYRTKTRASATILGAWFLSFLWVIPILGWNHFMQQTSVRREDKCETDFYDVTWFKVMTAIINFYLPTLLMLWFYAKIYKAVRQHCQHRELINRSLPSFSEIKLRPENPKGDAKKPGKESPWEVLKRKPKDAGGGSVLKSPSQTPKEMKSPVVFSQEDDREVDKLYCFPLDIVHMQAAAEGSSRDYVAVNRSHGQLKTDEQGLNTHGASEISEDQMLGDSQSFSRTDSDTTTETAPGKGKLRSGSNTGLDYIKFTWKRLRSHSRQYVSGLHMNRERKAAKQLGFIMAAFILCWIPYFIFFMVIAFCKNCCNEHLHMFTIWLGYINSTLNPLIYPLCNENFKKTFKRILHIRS
Note: assay procedure not described here.

Row | SMILES | AC50 (Androgen receptor) [µM] | AC50 [1] [µM] | AC50 (Estrogen receptor) [µM] | further results
1 | N[C@@H](CC(=O)N1CCn2c(nnc2C(F)(F)F)C1)Cc1cc(F)c(F)cc1F [SITAGLIPTIN] | > 30 | > 50 | > 30 | AC50 (Histamine H2 receptor): > 10 µM; AC50 [2]: > 10 µM; AC50 [3]: > 10 µM; AC50 (Substance-P receptor): > 10 µM
2 | CC(C)N(CCC(C(N)=O)(c1ccccc1)c1ccccn1)C(C)C (configuration not stated) [DISOPYRAMIDE] | – | > 50 | – | AC50 [4]: > 10 µM; AC50 (Estrogen receptor beta): > 30 µM; AC50 (Histamine H1 receptor): > 30 µM; AC50 [3]: > 30 µM
3 | C[C@H](CCC(=O)O)[C@H]1CC[C@H]2[C@@H]3[C@@H](O)C[C@@H]4C[C@H](O)CC[C@]4(C)[C@H]3CC[C@]12C [URSODIOL] | – | – | > 30 | –
4 | CN1C[C@H](C(=O)N[C@]2(C)O[C@@]3(O)[C@@H]4CCCN4C(=O)[C@H](Cc4ccccc4)N3C2=O)C=C2c3cccc4[nH]cc(c34)C[C@H]21 [ERGOTAMINE] | – | – | > 30 | –
5 | C=CC[C@@H]1/C=C(\C)C[C@H](C)C[C@H](OC)[C@H]2O[C@@](O)(C(=O)C(=O)N3CCCC[C@H]3C(=O)O[C@H](/C(C)=C/[C@@H]3CC[C@@H](O)[C@H](OC)C3)[C@H](C)[C@@H](O)CC1=O)[C@H](C)C[C@@H]2OC [TACROLIMUS ANHYDROUS] | > 30 | > 50 | > 30 | AC50 [4]: > 10 µM; AC50 (Estrogen receptor beta): > 30 µM; AC50 (Histamine H2 receptor): > 10 µM; AC50 [2]: > 10 µM; AC50 [3]: > 30 µM; AC50 (Substance-P receptor): > 10 µM
6 | CC(C)c1nc(N(C)S(C)(=O)=O)nc(-c2ccc(F)cc2)c1/C=C/[C@@H](O)C[C@@H](O)CC(=O)O [ROSUVASTATIN] | – | – | > 30 | AC50 (Histamine H1 receptor): > 30 µM
7 | CCN1CCN(Cc2ccc(Nc3ncc(F)c(-c4cc(F)c5nc(C)n(C(C)C)c5c4)n3)nc2)CC1 [ABEMACICLIB] | > 30 | – | > 30 | –
8 | COc1cc2nccc(Oc3ccc(NC(=O)C4(C(=O)Nc5ccc(F)cc5)CC4)cc3)c2cc1OC [CABOZANTINIB] | > 30 | – | > 10 | –
9 | C[C@@H](Oc1cc(-c2cnn(C3CCNCC3)c2)cnc1N)c1c(Cl)ccc(F)c1Cl [CRIZOTINIB] | > 30 | > 30 | > 30 | –
10 | CCN(CC)CCNC(=O)c1c(C)[nH]c(/C=C2\C(=O)Nc3ccc(F)cc32)c1C [SUNITINIB] | 5.9 | > 50 | – | AC50 [2]: > 30 µM
11 | O=C1CCc2cc(OCCCCc3nnnn3C3CCCCC3)ccc2N1 [CILOSTAZOL] | – | > 50 | – | AC50 [4]: > 10 µM

— ChEMBL document CHEMBL5291721, “A preclinical secondary pharmacology resource illuminates target-adverse drug reaction associations of marketed drugs” (Nat Commun, 2023)
